Experimental data: US20250066290A1, “DHODH INHIBITORS CONTAINING A CARBOXYLIC ACID BIOISOSTERE” (IMMUNIC AG, priority 2021, published 2025)
Converted amounts (≈) assume the structure as drawn. Read-outs that look alike come from different tables or passages of the source.

Tests used:
[1] = system: SARS-CoV-2; experiment: SARS-CoV-2 viral replication (YFP) assay; format: cell-based; settings: Severe acute respiratory syndrome coronavirus 2, read-out: EC50 range
[2] = system: SARS-CoV-2 d6-YFP; experiment: Combinatorial drug assessment with EIDD-1931 by viral replication inhibition assay; format: cell-based
[3] = molecular target: human URAT1 uptake transporter (Homo sapiens (Human), UniProt Q96S37); experiment: Human URAT1 uptake transporter assay (MDCKII-URAT1-LV, SOLVO); format: cell-based; settings: 10 μM compound, 20 μM uric acid probe substrate
Sequence of human URAT1 uptake transporter (Q96S37 whole entry): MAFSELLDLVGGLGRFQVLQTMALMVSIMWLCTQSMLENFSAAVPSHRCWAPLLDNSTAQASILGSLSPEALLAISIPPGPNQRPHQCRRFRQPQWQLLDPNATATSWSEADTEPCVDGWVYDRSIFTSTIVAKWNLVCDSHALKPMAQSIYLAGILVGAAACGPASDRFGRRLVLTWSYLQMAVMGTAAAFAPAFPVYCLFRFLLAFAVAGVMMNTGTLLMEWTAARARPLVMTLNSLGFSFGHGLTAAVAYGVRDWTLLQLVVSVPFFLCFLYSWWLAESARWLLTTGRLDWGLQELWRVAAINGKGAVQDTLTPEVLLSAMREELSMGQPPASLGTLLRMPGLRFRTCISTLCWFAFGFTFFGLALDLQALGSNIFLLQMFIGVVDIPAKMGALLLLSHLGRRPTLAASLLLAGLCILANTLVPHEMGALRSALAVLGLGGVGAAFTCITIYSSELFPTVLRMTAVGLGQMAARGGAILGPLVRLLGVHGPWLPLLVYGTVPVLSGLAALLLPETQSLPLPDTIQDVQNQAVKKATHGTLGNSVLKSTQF
Procedure: In the human URAT1 uptake transporter assay (host cell line: MDCKII), the accumulation of the probe substrate in the presence of a DHODH inhibitor (at a concentration of 10 μM) into cells was measured. The assay was executed at SOLVO with catalogue number MDCKII-URAT1-LV. 20 μM uric acid served as probe substrate. Reference inhibitor was benzbromarone at a concentration of 300 μM, which served as internal control.

[4] = molecular target: N-terminally truncated recombinant hDHODH enzyme (Homo sapiens, UniProt Q02127); experiment: biochemical; format: biochemical
Sequence of N-terminally truncated recombinant hDHODH enzyme (Q02127 whole entry, looked up, the tested form may be a part): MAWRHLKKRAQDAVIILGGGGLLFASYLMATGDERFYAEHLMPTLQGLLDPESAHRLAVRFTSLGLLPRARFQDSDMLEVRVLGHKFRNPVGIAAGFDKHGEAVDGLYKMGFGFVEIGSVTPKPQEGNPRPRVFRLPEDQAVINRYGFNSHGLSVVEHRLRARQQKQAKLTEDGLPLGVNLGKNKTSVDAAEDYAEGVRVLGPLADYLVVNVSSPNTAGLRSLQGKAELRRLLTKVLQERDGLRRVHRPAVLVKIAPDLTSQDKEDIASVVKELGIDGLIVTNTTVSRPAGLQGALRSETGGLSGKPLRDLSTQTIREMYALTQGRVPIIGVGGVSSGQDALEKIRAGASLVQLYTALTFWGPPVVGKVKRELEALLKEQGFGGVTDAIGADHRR
Procedure: Briefly, the hDHODH concentration was adjusted in a way that an average slope of approximately 0.2 AU/min served as the positive control (e.g. without inhibitor). The standard assay mixture contained 60 μM 2,6-dichloroindophenol, 50 μM decylubiquinone and 100 μM dihydroorotate. The hDHODH enzyme with or without at least six different concentrations of the compounds was added and measurements were performed in 50 mM TrisHCl, 150 mM KCl and 0.1% Triton X-100 at pH 8.0 and at 30° C. The reaction was started by adding dihydroorotate and measuring the absorption at 600 nm for 2 min. For the determination of the IC50 values, each data point was recorded in triplicate. […].

[5] = Mouse pharmacokinetics, male and female, cassette dosing; format: in vivo, mice (C57BL/6J); settings: for AUC / Cmax / half-life: C57BL/6J, mouse, in vivo; for AUC: 0 to 24 h; for Cmax: 5 mg/kg oral, 1 mg/kg intravenous cassette; for F: bioavailability
Procedure: The pharmacokinetics of the compounds of the present invention was evaluated in 3 male and 3 female mice (C57BL/6J, 8 week old) after oral or intravenous cassette dosing to assess the oral bioavailability. Dose was 5 mg/kg (oral) and 1 mg/kg (intravenous), application volume was 5 mL/kg (oral) and 0.5 mL/kg (intravenous), vehicle was 5% solutol, 95% NaCl solution (at 0.9% saline concentration) for oral and 5% solutol, 5% ethanol, 90% NaCl solution (at 0.9% saline concentration) for intravenous. At each designated time point (0.5, 1, 2, 4, 8 and 24 h after dosing), 20 μL whole blood were collected from the tail vein into Li-heparin tubes, frozen on dry ice within 1-2 minutes of sampling and stored at −20° C. until processed for LC-MS analysis.

[6] = Kinetic aqueous solubility in PBS at pH 7.4; settings: pH 7.4, aqueous buffer, kinetic from dmso stock
[7] = Partition coefficient log D (n-octanol/PBS at pH 7.4); format: physicochemical; settings: n-octanol/PBS at pH 7.4; read-out: logD
Procedure: The total amount of compound was determined as the peak area of the principal peak in a calibration standard (100 μM) containing organic solvent (MeOH/water, 60/40 v/v). The amount of compound in buffer was determined as the combined, volume-corrected and weighted areas of the corresponding peaks in the aqueous phases of three organic-aqueous samples of different composition. An automated weighting system was used to ensure the preferred use of raw data from those samples with well quantifiable peak signals. The amount of compound in organic was calculated by subtraction.
Subsequently, the partition coefficient (log D, n-octanol/PBS at pH 7.4) was calculated as the Log10 of the amount of compound in the organic phase divided by the amount of compound in the aqueous phase (Eurofins Discovery Services Item #417).

[8] = Metabolic stability in human liver microsomes
From the text: (§1) The metabolism was monitored by HPLC-MS/MS. Verapamil served as positive control.

[9] = Metabolic stability in rat liver microsomes; settings: SD
From the text: as §1

[10] = Rat pharmacokinetics, oral cassette dosing; set-up: species or system Sprague Dawley rats; settings: Sprague Dawley, in vivo; for AUC(0-t) / Cmax / AUC(0-inf): female rats, oral cassette; for AUC(0-t): 0 to 8 h; for Cmax: blood; for AUC(0-inf): calculated to infinity; for half-life: female, po
Procedure: The pharmacokinetics of compounds of the present invention was evaluated in 3 female Sprague Dawley rats (8 week old) after oral cassette dosing (vehicle: 5% solutol/95% NaCl solution (at 0.9% saline concentration; application volume: 5 mL/kg) to asses the exposure of the test items. At each designated time point (0.25, 0.5, 1, 2, 4 and 8 h after dosing), 20 μL blood were collected from the tail vein into Li-heparin tubes, cooled on ice and stored at −20° C. until processed for LC-MS analysis. The obtained data is as follows: […]

[11] = Mouse pharmacokinetics, female, deuteration matched pair analysis; format: in vivo, mice (C57BL/6J); settings: for AUC(0-t) / Cmax / half-life: C57BL/6J, mouse, in vivo; for AUC(0-t) / Cmax / F: female mice; for AUC(0-t): 0 to 8 h; for Cmax: 5 mg/kg oral, 1 mg/kg intravenous cassette; for F: bioavailability; for half-life: female
Procedure: In another matched pair analysis the benefit of deuteration of the N-methoxyacetamide moiety was tested: the pharmacokinetic properties of the compounds were evaluated in 3 female mice (C57BL/6J, 8 week old) after oral or intravenous cassette dosing to assess the oral bioavailability. Dose was 5 mg/kg (oral) and 1 mg/kg (intravenous), application volume was 5 mL/kg (oral) and 2 mL/kg (intravenous), vehicle was 5% solutol, 95% NaCl solution (at 0.9% saline concentration) for oral and 5% solutol, 5% ethanol, 90% NaCl solution (at 0.9% saline concentration) for intravenous application. At each designated time point (0.25, 0.5, 1, 2, 4 and 8 h after dosing for oral; 0.083, 0.25, 0.5, 1, 4 and 8 h after dosing for intravenous), 20 μL whole blood were collected from the tail vein into Li-heparin tubes, frozen on dry ice within 1-2 minutes of sampling and stored at −20° C. until processed for LC-MS analysis.

[12] = high vidofludimus doses; cited from earlier work
[13] = human DHODH assay, read-out: IC50 range

| SMILES | EC50 [1] [nM] | human URAT1 uptake transporter stimulation @ 10 μM [3] [%] | IC50 [4, 13] [nM] | solubility [6] [µM] | microsomal CLint ([8]; female) [µL/min/mg] | microsomal CLint ([8]; male) [µL/min/mg] | microsomal CLint ([9]; female) [µL/min/mg] | microsomal CLint ([9]; male) [µL/min/mg] | also measured |
| --- | --- | --- | --- | --- | --- | --- | --- | --- | --- |
| CS(=O)(=O)NC(=O)C1=C(C(=O)Nc2c(F)c(F)c(-c3cccc(OC(F)(F)F)c3)c(F)c2F)CCC1 [Example 1, N^1-(Methylsulfonyl)-N^2-(2,3,5,6-tetrafluoro-3′-(trifluoromethoxy)-[1,1′-biphenyl]-4-yl)cyclopent-1-ene-1,2-dicarboxamide] | 10000 to 25000 | 28 | < 100 | 237 (≈ 128 µg/mL) | – | – | – | – | antiviral effect in combination with EIDD-1931 [2]: synergistic antiviral effect; antiviral effect in combination with EIDD-1931 ([2]; listed as Compound 1): synergistic antiviral effects; AUC ([5]; female mice): 7350 ng·h/mL; Cmax ([5]; female mice): 1320 ng/mL; AUC ([5]; male mice): 3200 ng·h/mL; Cmax ([5]; male mice): 754 ng/mL; F ([5]; female mice): ♀ 217%; half-life ([5]; female): 2.8 h; F ([5]; male mice): ♂ 49%; half-life ([5]; male): 2.9 h |
| [2H]C([2H])([2H])Oc1cccc(-c2cc(F)c(NC(=O)C3=C(C(=O)NS(C)(=O)=O)CCC3)c(F)c2)c1 [Example 1/1] | 25000 to 50000 | <20 | – | 227 (≈ 103 µg/mL) | – | – | – | – | logD [7]: 0.9 |
| [2H]C([2H])([2H])Oc1cccc(-c2c(F)c(F)c(NC(=O)C3=C(C(=O)NS(C)(=O)=O)CCC3)c(F)c2F)c1 [Example 1/7] | < 10000 | – | < 100 | – | 4.01 | 1.32 | 30.5 | 20 | – |
| COc1cccc(-c2c(F)c(F)c(NC(=O)C3=C(C(=O)NS(C)(=O)=O)CCC3)c(F)c2F)c1 [Example 1/13] | – | – | < 100 | – | 10.3 | 14.4 | 35.4 | 25.5 | – |
| NS(=O)(=O)NC(=O)C1=C(C(=O)Nc2c(F)c(F)c(-c3cccc(OC(F)(F)F)c3)c(F)c2F)CCC1 [Example 2, N^1-Sulfamoyl-N^2-(2,3,5,6-tetrafluoro-3′-(trifluoromethoxy)-[1,1′-biphenyl]-4-yl)cyclopent-1-ene-1,2-dicarboxamide] | 10000 to 25000 | 72 | < 100 | – | – | – | – | – | – |
| [2H]C([2H])([2H])Oc1cccc(-c2cc(F)c(NC(=O)C3=C(C(=O)NS(N)(=O)=O)CCC3)c(F)c2)c1 [Example 2/1] | > 50000 | 22 | < 100 | 235 (≈ 107 µg/mL) | – | – | – | – | logD [7]: 0.5; AUC ([5]; female mice): 8610 ng·h/mL; Cmax ([5]; female mice): 2280 ng/mL; AUC ([5]; male mice): 3070 ng·h/mL; Cmax ([5]; male mice): 1500 ng/mL; F ([5]; female mice): ♀ 144%; half-life ([5]; female): 2.4 h; F ([5]; male mice): ♂ 60%; half-life ([5]; male): 3.1 h |
| O=C(Nc1c(F)c(F)c(-c2cccc(OC(F)(F)F)c2)c(F)c1F)C1=C(c2nn[nH]n2)CCC1 [Example 3, N-(2,3,5,6-Tetrafluoro-3′-(trifluoromethoxy)-[1,1′-biphenyl]-4-yl)-2-(2H-tetrazol-5-yl)cyclopent-1-ene-1-carboxamide] | < 10000 | <20 | – | 207 (≈ 101 µg/mL) | – | – | – | – | IC50 [4]: 100 to 1000 nM |
| [2H]C([2H])([2H])Oc1cccc(-c2c(F)c(F)c(NC(=O)C3=C(C(=O)NOC)COC3)c(F)c2F)c1 [Example 5/4] | < 1000 | – | < 100 | – | – | – | – | – | AUC(0-t) [10]: 125 µM·h; Cmax [10]: 21 µM; AUC(0-inf) [10]: 271 µM·h; half-life [10]: 7.9 h; AUC(0-t) [11]: 106000 ng·h/mL; Cmax [11]: 18000 ng/mL; F [11]: 39%; half-life [11]: > 8 h |
| [2H]C([2H])([2H])ONC(=O)C1=C(C(=O)Nc2c(F)c(F)c(-c3cccc(OC([2H])([2H])[2H])c3)c(F)c2F)COC1 [Example 5/5] | < 1000 | – | < 100 | – | – | – | – | – | AUC(0-t) [10]: 113 µM·h; Cmax [10]: 19 µM; AUC(0-inf) [10]: 252 µM·h; half-life [10]: 8.4 h; AUC(0-t) [11]: 165000 ng·h/mL; Cmax [11]: 70000 ng/mL; F [11]: 56%; half-life [11]: > 8 h |
| CONC(=O)C1=C(C(=O)Nc2c(F)c(F)c(-c3cccc(OC)c3)c(F)c2F)COC1 [Example 5/9] | – | – | < 100 | – | – | – | – | – | AUC(0-t) [10]: 91 µM·h; Cmax [10]: 17 µM; AUC(0-inf) [10]: 185 µM·h; half-life [10]: 6.6 h |
| [2H]C([2H])([2H])Oc1cccc(-c2cc(F)c(NC(=O)c3ccsc3C(=O)NOCCO)c(F)c2)c1 [Example 9/1] | < 1000 | – | < 100 | – | 40.4 | 67.2 | 52.8 | 162 | – |
| CONC(=O)c1sccc1C(=O)Nc1c(F)cc(-c2cccc(OC)c2)cc1F [Example 9/9] | – | – | < 100 | – | 66.1 | 93.9 | 69.3 | 192 | – |
| COc1cccc(-c2ccc(NC(=O)C3=C(C(=O)O)CCC3)c(F)c2)c1 [vidofludimus, 2-((3-fluoro-3′-methoxy-[1,1′-biphenyl]-4-yl)carbamoyl)cyclopent-1-ene-1-carboxylic acid] | – | – | – | – | – | – | – | – | blood uric acid levels [12]: decrease; urine red blood cell count [12]: increase |
